Our source for the selectivity ratio, MIC99 and IC50 values is ChEMBL document CHEMBL2331487, “Synthesis and antiplasmodial and antimycobacterial evaluation of new nitroimidazole and nitroimidazooxazine derivatives” (ACS Med Chem Lett, 2013).

The nature of series [1]: Selectivity index, ratio of IC50 for rat L6 cells to IC50 for Plasmodium falciparum K1 by [3H] hypoxanthine uptake inhibition assay. The series is classed as toxicity, cell-based. The conditions noted are these: rat L6 cells versus Plasmodium falciparum K1, read-out: Ratio IC50.
The subject of series [2] is Mycobacterium tuberculosis. Kind of series: Antimycobacterial activity Mycobacterium tuberculosis H37Rv assessed as growth inhibition measured at day 7 by broth microdilution method. The conditions noted are these: 168 h. Type of series: functional.
Series [3] concerns L6. Kind of series: Cytotoxicity against rat L6 cells after 72 hrs by fluorometric analysis. The series is classed as cell-based. The conditions noted are these: L6, 72 h.
The test system of series [4] is Plasmodium falciparum. Kind of series: Antimalarial activity against Plasmodium falciparum K1 assessed as inhibition of [3H] hypoxanthine uptake by liquid scintillation counting. Type of series: functional, organism-based.

≈ marks a conversion by molar mass, not a printed value.

Take `CC(C)(C)n1nnnc1C(NCCNc1ccnc2cc(Cl)ccc12)c1ccc(CO[C@@H]2COc3nc([N+](=O)[O-])cn3C2)cc1` (some centres undefined): the selectivity ratio in series [1] stood at 246. Moreover, in series [2], the MIC99 was determined as 0.313 µM (≈ 0.198 µg/mL). For the same compound, the 50% inhibitory concentration (IC50) was 24.6 µM in series [3] and 0.1 µM in series [4].

Turning to `CC(C)(C)n1nnnc1C(NCCCNc1ccnc2cc(Cl)ccc12)c1ccc(CO[C@@H]2COc3nc([N+](=O)[O-])cn3C2)cc1` (some centres undefined), the selectivity ratio in series [1] amounted to 85. Also, the IC50 in series [3] worked out at 41.5 µM; in series [4], 0.485 µM.

On to `CC(C)(C)n1nnnc1C(NCCCCNc1ccnc2cc(Cl)ccc12)c1ccc(CO[C@@H]2COc3nc([N+](=O)[O-])cn3C2)cc1` (some centres undefined), for which the selectivity ratio in series [1] came to 175. The MIC99 in series [2] was 0.625 µM (≈ 0.413 µg/mL). Moreover, the IC50 in series [3] was 29.3 µM; in series [4], 0.164 µM.

With `COc1cc(NC(C)CCCNC(c2ccc(CO[C@@H]3COc4nc([N+](=O)[O-])cn4C3)cc2)c2nnnn2C(C)(C)C)c2ncccc2c1` (some centres undefined), the selectivity ratio in series [1] was found to be 37. In addition, the MIC99 in series [2] was 0.625 µM (≈ 0.419 µg/mL). Also, the values for the IC50 in series [3] and in series [4] were 75.9 µM and 2.04 µM, respectively.

In the case of `COc1cc(NC(C)CCCNC(c2cccc(CO[C@@H]3COc4nc([N+](=O)[O-])cn4C3)c2)c2nnnn2C(C)(C)C)c2ncccc2c1` (some centres undefined), the selectivity ratio in series [1] was found to be 145. In addition, in series [2], the MIC99 came out at 5 µM (≈ 3.35 µg/mL). Moreover, the values for the IC50 in series [3] and in series [4] were 143 µM and 0.985 µM, respectively.

`CN(CCO)CCNc1ccnc2cc(Cl)ccc12`: the selectivity ratio in series [1] stood at 995. Also, the MIC99 in series [2] was more than 160 µM. The results for the 50% inhibitory concentration (IC50) in series [3] and in series [4] were 77.6 µM and 0.078 µM, respectively.

`CN(CCO)CCCNc1ccnc2cc(Cl)ccc12`: the selectivity ratio in series [1] came out at 63. Further, in series [2], the MIC99 is more than 160 µM. Further, the values for the IC50 in series [3] and in series [4] were 24.8 µM and 0.391 µM, respectively.

Regarding `O=[N+]([O-])c1cn2c(n1)OC[C@@H](OCCCNc1ccnc3cc(Cl)ccc13)C2`, in series [1], the selectivity ratio was 12.8. For the same compound, in series [2], the MIC99 turned out to be 1.25 µM (≈ 0.505 µg/mL). The half-inhibitory concentration (IC50) in series [3] was 134 µM; in series [4], 10.5 µM.

Take `O=Cc1ccc(CO[C@@H]2COc3nc([N+](=O)[O-])cn3C2)cc1`: in series [2], the MIC99 was determined as 0.25 µM (≈ 0.0758 µg/mL).

For the compound `O=Cc1cccc(CO[C@@H]2COc3nc([N+](=O)[O-])cn3C2)c1`, in series [1], the selectivity ratio is 0.54. For the same compound, in series [2], the MIC99 is 0.625 µM (≈ 0.19 µg/mL). Moreover, the IC50 in series [3] is 34.3 µM; in series [4] it was 62.6 µM.

Regarding `CN(C)C(c1ccc(CO[C@@H]2COc3nc([N+](=O)[O-])cn3C2)cc1)c1nnnn1C(C)(C)C` (some centres undefined), in series [1], the selectivity ratio amounted to 11.2. Moreover, the MIC99 in series [2] was 0.625 µM (≈ 0.285 µg/mL). Besides, the concentration for half-maximal inhibition (IC50) in series [3] was determined as 177 µM; in series [4], 15.8 µM.

As for `CCN(CC)C(c1ccc(CO[C@@H]2COc3nc([N+](=O)[O-])cn3C2)cc1)c1nnnn1C(C)(C)C` (some centres undefined), in series [1], the selectivity ratio turned out to be 14.2. Further, the MIC99 in series [2] worked out at 0.313 µM (≈ 0.152 µg/mL). Moreover, the half-inhibitory concentration (IC50) in series [3] came to 113 µM; in series [4], 7.95 µM.

Take `CC(C)(C)n1nnnc1C(c1ccc(CO[C@@H]2COc3nc([N+](=O)[O-])cn3C2)cc1)N1CCCC1` (some centres undefined): the selectivity ratio in series [1] stood at 8.65. The MIC99 in series [2] was found to be 0.313 µM (≈ 0.151 µg/mL). In addition, the IC50 in series [3] came out at 75.2 µM; in series [4], 8.7 µM.

As for `OCCNc1ccnc2cc(Cl)ccc12`, the selectivity ratio in series [1] is 159. Also, the MIC99 in series [2] is more than 160 µM. Besides, the IC50 in series [3] was 233 µM; in series [4], 1.47 µM.

For `OCCCNc1ccnc2cc(Cl)ccc12`, the selectivity ratio in series [1] came out at 164. In addition, the MIC99 in series [2] is more than 160 µM. In addition, the IC50 in series [3] is 178 µM; in series [4], 1.09 µM.

Regarding `O=[N+]([O-])c1cn2c(n1)OC[C@@H](O)C2`, in series [2], the MIC99 worked out at 40 µM (≈ 7.41 µg/mL). Besides, the half-inhibitory concentration (IC50) in series [3] is 331 µM; in series [4], more than 270 µM.

As to `NCCNc1ccnc2cc(Cl)ccc12`, the selectivity ratio in series [1] amounted to 71.2. Besides, the MIC99 in series [2] is more than 160 µM. Also, the half-inhibitory concentration (IC50) was 21.2 µM in series [3] and 0.298 µM in series [4].

On to `CCN(CC)CCCC(C)Nc1ccnc2cc(Cl)ccc12` (centres undefined) [CHLOROQUINE], for which, in series [2], the MIC99 was more than 160 µM.

Consider `NC[C@H]1O[C@H](O[C@H]2[C@H](O)[C@@H](O[C@H]3O[C@H](CO)[C@@H](O)[C@H](N)[C@H]3O)[C@H](N)C[C@@H]2N)[C@H](O)[C@@H](O)[C@@H]1O` [KANAMYCIN], for which the MIC99 in series [2] was found to be 5.4 µM (≈ 2.62 µg/mL).

In series [3], `COc1cc([C@@H]2c3cc4c(cc3[C@H](O)[C@H]3COC(=O)[C@H]23)OCO4)cc(OC)c1OC` [PODOFILOX] returned an IC50 of 0.0193 µM.

On to `COc1cc(NC(C)CCCN)c2ncccc2c1` (centres undefined) [PRIMAQUINE], for which the MIC99 in series [2] was determined as 80 µM (≈ 20.7 µg/mL). The IC50 in series [4] was 0.643 µM.

Turning to `CN[C@@H]1[C@H](O[C@H]2[C@H](O[C@H]3[C@H](O)[C@@H](O)[C@H](N=C(N)N)[C@@H](O)[C@@H]3N=C(N)N)O[C@@H](C)[C@]2(O)C=O)O[C@@H](CO)[C@H](O)[C@H]1O` [STREPTOMYCIN], the MIC99 in series [2] came out at 0.27 µM (≈ 0.157 µg/mL).
